In paper PMC7753147, “High-throughput determination of protein affinities using unmodified peptide libraries in nanomolar scale” (iScience, 2020):

Legend:
[1] = test system: gephE; test: µSPOT peptide microarray binding assay with recombinant gephE; details: µSPOT full positional scan of GlyRβ 15-mer DLRSNDFSIVGSLPR; intensity normalised to wild-type sequence (= 1)
[2] = test system: native geph; test: µSPOT peptide microarray binding assay with native geph from mouse brain lysate; details: µSPOT full positional scan of GlyRβ 15-mer DLRSNDFSIVGSLPR; native geph; intensity normalised to wild-type sequence (= 1)
[3] = test system: FL-geph; test: µSPOT peptide microarray binding assay with full-length geph; details: µSPOT full positional scan of GlyRβ 15-mer DLRSNDFSIVGSLPR, intensity normalised to wild-type sequence (= 1)

Sequence: DLRSNDFSIVGDLPR [GlyRβ_Full_Positional_Scan_230]
- gephE Binding Intensity [norm.] [1]: 0.52 norm.
- Native geph Binding Intensity [norm.] [2]: 0.45 norm.
- Fl-geph Binding Intensity [norm.] [3]: 0.77 norm.

Sequence: DLRSNDFSIVGELPR [GlyRβ_Full_Positional_Scan_231]
- gephE Binding Intensity [norm.] [1]: 0.64 norm.
- Native geph Binding Intensity [norm.] [2]: 0.49 norm.
- Fl-geph Binding Intensity [norm.] [3]: 0.84 norm.

Sequence: DLRSNDFSIVGFLPR [GlyRβ_Full_Positional_Scan_227]
- gephE Binding Intensity [norm.] [1]: 0.64 norm.
- Native geph Binding Intensity [norm.] [2]: 0.37 norm.
- Fl-geph Binding Intensity [norm.] [3]: 0.88 norm.

Sequence: DLRSNDFSIVGGLPR [GlyRβ_Full_Positional_Scan_222]
- gephE Binding Intensity [norm.] [1]: 0.75 norm.
- Native geph Binding Intensity [norm.] [2]: 0.86 norm.
- Fl-geph Binding Intensity [norm.] [3]: 0.99 norm.

Sequence: DLRSNDFSIVGHLPR [GlyRβ_Full_Positional_Scan_233]
- gephE Binding Intensity [norm.] [1]: 0.8 norm.
- Native geph Binding Intensity [norm.] [2]: 0.9 norm.
- Fl-geph Binding Intensity [norm.] [3]: 1.01 norm.

Sequence: DLRSNDFSIVGILPR [GlyRβ_Full_Positional_Scan_223]
- gephE Binding Intensity [norm.] [1]: 0.62 norm.
- Native geph Binding Intensity [norm.] [2]: 0.45 norm.
- Fl-geph Binding Intensity [norm.] [3]: 1.05 norm.

Sequence: DLRSNDFSIVGKLPR [GlyRβ_Full_Positional_Scan_234]
- gephE Binding Intensity [norm.] [1]: 0.81 norm.
- Native geph Binding Intensity [norm.] [2]: 0.47 norm.
- Fl-geph Binding Intensity [norm.] [3]: 0.96 norm.

Sequence: DLRSNDFSIVGLLPR [GlyRβ_Full_Positional_Scan_224]
- gephE Binding Intensity [norm.] [1]: 0.62 norm.
- Native geph Binding Intensity [norm.] [2]: 0.44 norm.
- Fl-geph Binding Intensity [norm.] [3]: 1.01 norm.

Sequence: DLRSNDFSIVGMLPR [GlyRβ_Full_Positional_Scan_238]
- gephE Binding Intensity [norm.] [1]: 0.77 norm.
- Native geph Binding Intensity [norm.] [2]: 0.89 norm.
- Fl-geph Binding Intensity [norm.] [3]: 0.88 norm.

Sequence: DLRSNDFSIVGNLPR [GlyRβ_Full_Positional_Scan_239]
- gephE Binding Intensity [norm.] [1]: 0.74 norm.
- Native geph Binding Intensity [norm.] [2]: 1.16 norm.
- Fl-geph Binding Intensity [norm.] [3]: 1.17 norm.

Sequence: DLRSNDFSIVGPLPR [GlyRβ_Full_Positional_Scan_225]
- gephE Binding Intensity [norm.] [1]: 0.51 norm.
- Native geph Binding Intensity [norm.] [2]: 0.25 norm.
- Fl-geph Binding Intensity [norm.] [3]: 0.7 norm.

Sequence: DLRSNDFSIVGQLPR [GlyRβ_Full_Positional_Scan_240]
- gephE Binding Intensity [norm.] [1]: 0.84 norm.
- Native geph Binding Intensity [norm.] [2]: 1.4 norm.
- Fl-geph Binding Intensity [norm.] [3]: 1.12 norm.

Sequence: DLRSNDFSIVGRLPR [GlyRβ_Full_Positional_Scan_232]
- gephE Binding Intensity [norm.] [1]: 0.87 norm.
- Native geph Binding Intensity [norm.] [2]: 0.8 norm.
- Fl-geph Binding Intensity [norm.] [3]: 1.06 norm.

Sequence: DLRSNDFSIVGSAPR [GlyRβ_Full_Positional_Scan_241]
- gephE Binding Intensity [norm.] [1]: 0.9 norm.
- Native geph Binding Intensity [norm.] [2]: 1 norm.
- Fl-geph Binding Intensity [norm.] [3]: 1.07 norm.

Sequence: DLRSNDFSIVGSCPR [GlyRβ_Full_Positional_Scan_257]
- gephE Binding Intensity [norm.] [1]: 0.85 norm.
- Native geph Binding Intensity [norm.] [2]: 0.88 norm.
- Fl-geph Binding Intensity [norm.] [3]: 0.87 norm.

Sequence: DLRSNDFSIVGSDPR [GlyRβ_Full_Positional_Scan_250]
- gephE Binding Intensity [norm.] [1]: 0.72 norm.
- Native geph Binding Intensity [norm.] [2]: 0.61 norm.
- Fl-geph Binding Intensity [norm.] [3]: 1.05 norm.

Sequence: DLRSNDFSIVGSEPR [GlyRβ_Full_Positional_Scan_251]
- gephE Binding Intensity [norm.] [1]: 0.8 norm.
- Native geph Binding Intensity [norm.] [2]: 0.67 norm.
- Fl-geph Binding Intensity [norm.] [3]: 1.11 norm.

Sequence: DLRSNDFSIVGSFPR [GlyRβ_Full_Positional_Scan_247]
- gephE Binding Intensity [norm.] [1]: 0.9 norm.
- Native geph Binding Intensity [norm.] [2]: 0.96 norm.
- Fl-geph Binding Intensity [norm.] [3]: 1.16 norm.

Sequence: DLRSNDFSIVGSGPR [GlyRβ_Full_Positional_Scan_242]
- gephE Binding Intensity [norm.] [1]: 0.69 norm.
- Native geph Binding Intensity [norm.] [2]: 0.66 norm.
- Fl-geph Binding Intensity [norm.] [3]: 0.91 norm.

Sequence: DLRSNDFSIVGSHPR [GlyRβ_Full_Positional_Scan_253]
- gephE Binding Intensity [norm.] [1]: 1.08 norm.
- Native geph Binding Intensity [norm.] [2]: 1.16 norm.
- Fl-geph Binding Intensity [norm.] [3]: 1.02 norm.

Sequence: DLRSNDFSIVGSIPR [GlyRβ_Full_Positional_Scan_243]
- gephE Binding Intensity [norm.] [1]: 0.94 norm.
- Native geph Binding Intensity [norm.] [2]: 0.93 norm.
- Fl-geph Binding Intensity [norm.] [3]: 1 norm.

Sequence: DLRSNDFSIVGSKPR [GlyRβ_Full_Positional_Scan_254]
- gephE Binding Intensity [norm.] [1]: 0.59 norm.
- Native geph Binding Intensity [norm.] [2]: 0.24 norm.
- Fl-geph Binding Intensity [norm.] [3]: 0.68 norm.

Sequence: DLRSNDFSIVGSLAR [GlyRβ_Full_Positional_Scan_261]
- gephE Binding Intensity [norm.] [1]: 0.67 norm.
- Native geph Binding Intensity [norm.] [2]: 0.63 norm.
- Fl-geph Binding Intensity [norm.] [3]: 0.99 norm.

Sequence: DLRSNDFSIVGSLCR [GlyRβ_Full_Positional_Scan_277]
- gephE Binding Intensity [norm.] [1]: 0.62 norm.
- Native geph Binding Intensity [norm.] [2]: 0.36 norm.
- Fl-geph Binding Intensity [norm.] [3]: 0.67 norm.

Sequence: DLRSNDFSIVGSLDR [GlyRβ_Full_Positional_Scan_270]
- gephE Binding Intensity [norm.] [1]: 0.58 norm.
- Native geph Binding Intensity [norm.] [2]: 0.4 norm.
- Fl-geph Binding Intensity [norm.] [3]: 0.82 norm.

Sequence: DLRSNDFSIVGSLER [GlyRβ_Full_Positional_Scan_271]
- gephE Binding Intensity [norm.] [1]: 0.32 norm.
- Native geph Binding Intensity [norm.] [2]: 0.28 norm.
- Fl-geph Binding Intensity [norm.] [3]: 0.75 norm.

Sequence: DLRSNDFSIVGSLFR [GlyRβ_Full_Positional_Scan_267]
- gephE Binding Intensity [norm.] [1]: 0.71 norm.
- Native geph Binding Intensity [norm.] [2]: 0.28 norm.
- Fl-geph Binding Intensity [norm.] [3]: 0.78 norm.

Sequence: DLRSNDFSIVGSLGR [GlyRβ_Full_Positional_Scan_262]
- gephE Binding Intensity [norm.] [1]: 0.6 norm.
- Native geph Binding Intensity [norm.] [2]: 0.44 norm.
- Fl-geph Binding Intensity [norm.] [3]: 0.82 norm.

Sequence: DLRSNDFSIVGSLHR [GlyRβ_Full_Positional_Scan_273]
- gephE Binding Intensity [norm.] [1]: 0.62 norm.
- Native geph Binding Intensity [norm.] [2]: 0.55 norm.
- Fl-geph Binding Intensity [norm.] [3]: 1.08 norm.

Sequence: DLRSNDFSIVGSLIR [GlyRβ_Full_Positional_Scan_263]
- gephE Binding Intensity [norm.] [1]: 0.65 norm.
- Native geph Binding Intensity [norm.] [2]: 0.49 norm.
- Fl-geph Binding Intensity [norm.] [3]: 0.95 norm.

Sequence: DLRSNDFSIVGSLKR [GlyRβ_Full_Positional_Scan_274]
- gephE Binding Intensity [norm.] [1]: 0.58 norm.
- Native geph Binding Intensity [norm.] [2]: 0.21 norm.
- Fl-geph Binding Intensity [norm.] [3]: 1.01 norm.

Sequence: DLRSNDFSIVGSLLR [GlyRβ_Full_Positional_Scan_264]
- gephE Binding Intensity [norm.] [1]: 0.66 norm.
- Native geph Binding Intensity [norm.] [2]: 0.32 norm.
- Fl-geph Binding Intensity [norm.] [3]: 0.74 norm.

Sequence: DLRSNDFSIVGSLMR [GlyRβ_Full_Positional_Scan_278]
- gephE Binding Intensity [norm.] [1]: 0.6 norm.
- Native geph Binding Intensity [norm.] [2]: 0.44 norm.
- Fl-geph Binding Intensity [norm.] [3]: 0.77 norm.

Sequence: DLRSNDFSIVGSLNR [GlyRβ_Full_Positional_Scan_279]
- gephE Binding Intensity [norm.] [1]: 0.71 norm.
- Native geph Binding Intensity [norm.] [2]: 0.67 norm.
- Fl-geph Binding Intensity [norm.] [3]: 0.77 norm.

Sequence: DLRSNDFSIVGSLPA [GlyRβ_Full_Positional_Scan_281]
- gephE Binding Intensity [norm.] [1]: 0.87 norm.
- Native geph Binding Intensity [norm.] [2]: 0.81 norm.
- Fl-geph Binding Intensity [norm.] [3]: 0.9 norm.

Sequence: DLRSNDFSIVGSLPC [GlyRβ_Full_Positional_Scan_297]
- gephE Binding Intensity [norm.] [1]: 0.83 norm.
- Native geph Binding Intensity [norm.] [2]: 0.97 norm.
- Fl-geph Binding Intensity [norm.] [3]: 1.04 norm.

Sequence: DLRSNDFSIVGSLPD [GlyRβ_Full_Positional_Scan_290]
- gephE Binding Intensity [norm.] [1]: 0.96 norm.
- Native geph Binding Intensity [norm.] [2]: 0.66 norm.
- Fl-geph Binding Intensity [norm.] [3]: 1.21 norm.

Sequence: DLRSNDFSIVGSLPE [GlyRβ_Full_Positional_Scan_291]
- gephE Binding Intensity [norm.] [1]: 0.82 norm.
- Native geph Binding Intensity [norm.] [2]: 0.49 norm.
- Fl-geph Binding Intensity [norm.] [3]: 0.84 norm.

Sequence: DLRSNDFSIVGSLPF [GlyRβ_Full_Positional_Scan_287]
- gephE Binding Intensity [norm.] [1]: 1.01 norm.
- Native geph Binding Intensity [norm.] [2]: 0.79 norm.
- Fl-geph Binding Intensity [norm.] [3]: 0.64 norm.

Sequence: DLRSNDFSIVGSLPG [GlyRβ_Full_Positional_Scan_282]
- gephE Binding Intensity [norm.] [1]: 0.88 norm.
- Native geph Binding Intensity [norm.] [2]: 0.84 norm.
- Fl-geph Binding Intensity [norm.] [3]: 0.92 norm.
